Results reported in patent publication US12384821B2, “Antimicrobial peptides and compositions, methods, articles and kits relating thereto” (George Mason University, priority 2020, dated 2025).
Where two headings read alike, the source gives them in different places. Where no end group is shown, it is not given here.

Assays:
[1] = test system: carbapenem-resistant K. pneumoniae strain (ATCC BAA-1705); format: cell-based, Klebsiella pneumoniae; details: for Antibacterial activity against CRKP (in words): CA-MHB, high salt test conditions; for MIC (μM) / MIC (μg/mL): ATCC BAA-1705
Experimental: Klebsiella pneumoniae ATCC BAA-1705 was purchased from the American Type Culture Collection (Manassas, VA) and grown in Cation-Adjusted Mueller Hinton Broth. Bacteria were aliquoted and frozen at −80° C. with 20% glycerol and enumerated via serial dilution and plating prior to experimentation.
The minimum inhibitory concentration (MIC) of the peptides was determined according to Clinical & Laboratory Standards Institute (CLSJ) guidelines. Bacteria were grown overnight on Cation-adjusted Mueller Hinton Agar (BD 211438, CAMHA) at 37° C. Assays were performed in Cation-adjusted Mueller Hinton Broth (BD 212322, CAMHB) in polypropylene 96 well plates (Corning 3879). Each experiment was performed with three replicates at least three times.

[2] = test system: CRKP infected waxworms; experiment: Waxworm infection model (CRKP infected G. mellonella); format: in vivo, Galleria mellonella
Experimental: FIG. 5 is a graph showing waxworm survival curves. Waxworms were injected with 10 μL containing 5×10^5 CFU in their rear left proleg. The waxworms were allowed to recover for 30 minutes at 37° C. They were injected with 10 μL containing the various treatments. They were kept at 37° C. and scored for survival every 24 hours. Each group contained 10 waxworms.
Galleria mellonella larvae were obtained from Vanderhorst Wholesale (Saint Marys, OH, USA). 10 larvae weighing between 250 and 300 mg were randomly assigned to each group. Waxworms were injected with 10 μL containing […] suspended in DPBS in their rear left proleg. The waxworms were then allowed to recover for 30 minutes at 37° C. They were then injected with 10 μL DPBS containing the various treatments into their rear right proleg. They were then kept at 37° C. and scored for survival every 24 hours.
(§1) We tested these antimicrobial peptides in the waxworm, G. mellonella.

[3] = test system: K. pneumoniae strain ATCC BAA-1705; experiment: DiSC3(5) membrane depolarization assay; format: cell-based, Klebsiella pneumoniae; details: PBS, 100, 10 and 1 μg/ml, 20 min
Experimental: FIGS. 2A-2B are graphs showing (A) membrane disruption as measured by ethidium bromide uptake against K. pneumoniae strain ATCC BAA-1705 in PBS at 50 μg/ml. Δ RFU shown is after 20 min incubation, done twice in triplicate. A one-way ANOVA with multiple comparisons was performed to determine statistical significance (* p<0.05; ** p<0.01; *** p<0.001); and (B) membrane depolarization Membrane depolarization was measures using 3,3′-dipropylthiadicarbocyanine iodide (DiSC3(5)) against K. pneumoniae strain ATCC BAA-1705 in PBS at 100, 10 and 1 μg/ml. Δ RFU shown is after 20 min incubation, done twice in triplicate. DRGN-6 refers to SEQ ID NO:6, DRGN-7 refers to SEQ ID NO:6 with N-terminus acetylated, DRGN-8 refers to SEQ ID NO:7, NACATH refers to SEQ ID NO:9.
Membrane depolarization was measured using DiSC3(5) (3,3′-dipropylthiadicarbocyanine iodide) as previously described with some modifications. Stocks of enumerated frozen Klebsiella pneumonia ATCC BAA-1705 were pelleted and washed twice in phosphate buffered saline (PBS) and then resuspended to 4×10^7 CFU/ml in PBS containing 50 μg/ml DiSC3(5). […] The plate was incubated in a fluorescence spectrophotometer (Tecan Infinite 200) and monitored until fluorescence stopped decreasing. […] Readings were taken at 20 minutes after addition of peptide (excitation=635 nm; emission=670 nm). […]

[4] = Circular dichroism spectroscopy, percent alpha-helicity; format: physicochemical; details: 100 μg/mL peptide
Experimental: Circular dichroism (CD) analysis of the peptides was performed using a Jasco J-1500 spectropolarimeter. 100 μg/mL of peptide was used in each experiment. Samples were allowed to equilibrate for 5 min prior to data collection at 25° C. in a 1 mm path length cuvette. Spectra were collected from 190 to 260 nm with at 20 nm/min, a data integration time of 4 seconds and a 1 nm bandwidth. Data shown represents the average of four spectra. The peptides were analyzed in 10 mM sodium phosphate buffer (6.12 mM sodium monohydrogen phosphate heptahydrate; 3.92 mM monosodium phosphate anhydrous; pH 7.4), 50% (v/v) trifluoroethanol (TFE) in phosphate buffer, or 60 mM sodium dodecyl sulfate (SDS) in phosphate buffer. Percent contribution to secondary structure was measured using methods described in Raussens, V. et al. (Analytical Biochemistry, 319(1):114-21 (2003)).
The secondary structures of many CAMPs are disordered in the absence of anionic membranes or micelles, but adopt more defined secondary structures in their presence. To detect and measure any changes that the DRGN peptides may undergo based on environment, we studied their structural properties in 10 mM phosphate buffer as a negative control, 60 mM SDS in 10 mM phosphate buffer and 50% 2,2,2-Trifluoroethanol (TFE) in 10 mM phosphate buffer. Phosphate buffer without SDS or TFE provided an environment for studying the conformational properties of the peptides structure in the absence a micelle or membrane. Sodium dodecyl sulfate is an anionic surfactant that can form micelles in aqueous buffers mimicking bacterial membranes and simulating the effects an anionic membrane can have on the conformations of antimicrobial peptides. Addition of trifluoroethanol to aqueous buffer promotes increased structure, usually helicity, in peptides with suitable sequences.

[5] = test system: G. mellonella; set-up: species or system Galleria mellonella; details: in vivo
From the text: as §1

In the case of `CC[C@H](C)[C@H](NC(=O)[C@H](CCCCN)NC(=O)[C@H](CCC(=O)O)NC(=O)[C@H](CCCCN)NC(=O)[C@H](CO)NC(=O)[C@H](CCCCN)NC(=O)[C@H](CCCNC(=N)N)NC(=O)[C@H](Cc1ccccc1)NC(=O)[C@H](Cc1ccccc1)NC(=O)[C@H](CC(=O)O)NC(=O)CNC(=O)[C@H](CC(C)C)NC(=O)[C@@H](N)CC(C)C)C(=O)NCC(=O)N[C@@H](CCCCN)C(=O)N[C@@H](CCC(=O)O)C(=O)N[C@@H](Cc1ccccc1)C(=O)N[C@@H](CCCCN)C(=O)N[C@@H](CCCNC(=N)N)C(=O)N[C@H](C(=O)N[C@H](C(=O)N[C@@H](CCC(N)=O)C(=O)N[C@@H](CCCNC(=N)N)C(=O)N[C@H](C(=O)N[C@@H](CCCCN)C(=O)N[C@@H](CC(=O)O)C(=O)N[C@@H](Cc1ccccc1)C(=O)N[C@@H](CC(C)C)C(=O)N[C@@H](CCCNC(=N)N)C(=O)N[C@@H](CC(N)=O)C(=O)N[C@@H](CC(C)C)C(=O)N[C@H](C(=O)N1CCC[C@H]1C(=O)N[C@@H](CCCNC(=N)N)C(=O)N[C@H](C(=O)N[C@@H](CCC(=O)O)C(=O)N[C@@H](CO)C(=O)O)[C@@H](C)O)C(C)C)[C@@H](C)CC)C(C)C)[C@@H](C)CC` [LL-37, reference compound], the “Antibacterial activity against CRKP (in words)” value (shortened to “Antibacterial activity”) [1] is reported as “very little antibacterial activity”, the “MIC (μM)” value ([1]; CLSI protocol in CA-MHB) is reported as over 14 µM and the “MIC (μg/mL)” value ([1]; CLSI protocol in CA-MHB) is reported as over 64 µg/mL.

In the case of `CN(C)c1cc(NC(=O)CNC(C)(C)C)c(O)c2c1C[C@H]1C[C@H]3[C@H](N(C)C)C(O)=C(C(N)=O)C(=O)[C@@]3(O)C(O)=C1C2=O` [tigecycline, reference compound], the “Survival of CRKP infected caterpillars” value ([2]; control antibiotic injected) is reported as 100%.

With “Ac-FRWRRFFRKAKRFLKRHAVSIAIGTVRLLRRFG-NH2 [DRGN-3]” the “MIC (μM)” value ([1]; CLSI protocol in CA-MHB) was 7.6 µM and the “MIC (μg/mL)” value ([1]; CLSI protocol in CA-MHB) was 32 µg/mL.

For “Ac-FRWRRFFRKAKRFLKRHGVSIAIGTVRLLRRFG-NH2 [DRGN-5]”, the “MIC (μM)” value ([1]; CLSI protocol in CA-MHB) was 7.7 µM and the “MIC (μg/mL)” value ([1]; CLSI protocol in CA-MHB) was 32 µg/mL.

For Colistin [reference compound], the “MIC (μM)” value ([1]; CLSI protocol in CA-MHB) was 3.46 µM and the “MIC (μg/mL)” value ([1]; CLSI protocol in CA-MHB) was 4 µg/mL.

With “FRWRRFFRKAKRFLKRHGVSIAIGTVRLLRRFG [VK-CATH4.1]” the “MIC (μM)” value ([1]; CLSI protocol in CA-MHB) was 7.7 µM and the “MIC (μg/mL)” value ([1]; CLSI protocol in CA-MHB) was 32 µg/mL.

With “H-FRWRRFFRKAKRFLKRHAVSIAIGTVRLLRRFG-OH [DRGN-2]” the “MIC (μM)” value ([1]; CLSI protocol in CA-MHB) was 7.7 µM and the “MIC (μg/mL)” value ([1]; CLSI protocol in CA-MHB) was 32 µg/mL.

In the case of H-RRWRRFFQKAKRLLRRFG-NH2 [DRGN-7], the “MIC (μM)” value [1] is reported as 1.6 µM, the “MIC (μg/mL)” value [1] is reported as 4 µg/mL and the “Change of MIC compared to DRGN-6” value ([1]; increase = decreased effectiveness) is reported as “no effect on MIC”. For the same molecule, the “Membrane depolarization, DiSC3(5)” value [3] was “significant depolarization at all concentrations tested”, the “Percent alpha-helicity, 10 mM phosphate buffer” value ([4]; 10 mM phosphate buffer) was 3.0% and the “Percent alpha-helicity, SDS” value ([4]; 60 mM SDS in 10 mM phosphate buffer) was 77.0%. The “Percent alpha-helicity, TFE” value ([4]; 50% TFE in 10 mM phosphate buffer) was 72.6%, the “Survival benefit in CRKP infected waxworms” value ([2]; single injection 30 min after infection) was “no survival benefit was observed” and the “Toxicity of peptide alone in waxworm” value [5] was “none of the peptides DRGN-6, -7 and -8 alone caused toxicity”.

In the case of “RRWRRFFQKAKRFVKRHGVSIAVGAYRIIG [VK-CATH4.2]”, the “MIC (μM)” value [1] is reported as 8.7 µM and the “MIC (μg/mL)” value ([1]; CLSI protocol in CA-MHB) is reported as 32 µg/mL.

In the case of RRWRRFFQKAKRLLRRFG [DRGN-6], the “MIC (μM)” value [1] is reported as 1.6 µM, the “MIC (μg/mL)” value [1] is reported as 4 µg/mL and the “Toxicity of peptide alone in waxworm” value [5] is reported as “none of the peptides DRGN-6, -7 and -8 alone caused toxicity”.

With RRWRRFFRKAKRIIG-NH2 [DRGN-11] the “MIC (μM)” value [1] was over 31 µM, the “MIC (μg/mL)” value [1] was over 64 µg/mL and the “Antibacterial activity” value [1] was “virtually inactive”.

With RRWRRFFRKAKRIIG-OH [DRGN-10] the “MIC (μM)” value [1] was over 31 µM, the “MIC (μg/mL)” value [1] was over 64 µg/mL and the “Antibacterial activity” value [1] was “virtually inactive”.

For RRWRRFFRKAKRLLRRFG [DRGN-8], the “MIC (μM)” value [1] was 3.2 µM, the “MIC (μg/mL)” value [1] was 8 µg/mL and the “Toxicity of peptide alone in waxworm” value [5] was “none of the peptides DRGN-6, -7 and -8 alone caused toxicity”.

In the case of RRWRRFFRKAKRLLRRFG-NH2 [DRGN-9], the “MIC (μM)” value [1] is reported as 6.4 µM, the “MIC (μg/mL)” value [1] is reported as 16 µg/mL and the “Increase in MIC compared to unmodified counterpart DRGN-8” value ([1]; C-terminal amidation, decreased effectiveness) is reported as 2 fold.
